For experiment [1], the system named is Escherichia coli. The experiment in a line: Antibacterial activity against Escherichia coli ATCC 25922 by serial dilution method. It is filed as functional.
A further experiment deals with Pseudomonas aeruginosa. The experiment in a line: Antibacterial activity against Pseudomonas aeruginosa ATCC 27853 by serial dilution method. The class given is functional.
The subject of experiment [2] is Bacillus subtilis. Put plainly: Antibacterial activity against Bacillus subtilis ATCC 6033 by serial dilution method. The class given is functional.
In the next experiment the test system is Staphylococcus aureus. Put plainly: Antibacterial activity against Staphylococcus aureus ATCC 25923 by serial dilution method. It is filed as functional.
In the next experiment the test system is Enterococcus faecalis. The experiment in a line: Antibacterial activity against Streptococcus faecalis ATCC 29212 by serial dilution method. The class given is functional.
The subject of experiment [3] is Klebsiella pneumoniae. The experiment in a line: Antibacterial activity against Klebsiella pneumoniae ATCC 13883 by serial dilution method. It is filed as functional.
Experiment [4] has as its system Aspergillus flavus. Put plainly: Antifungal activity against Aspergillus flavus NCIM 539 by serial dilution method. The class given is functional.
Experiment [5] deals with Aspergillus niger. Put plainly: Antifungal activity against Aspergillus niger NCIM 590 by serial dilution method. It is filed as functional.
Experiment [6] relates to Candida albicans. The experiment in a line: Antifungal activity against Candida albicans NCIM C27 by serial dilution method. The class given is functional.
For experiment [7], the system named is Aspergillus flavus. Put plainly: Antifungal activity against Aspergillus flavus NCIM 539 at 64 ug/mL by serial dilution method. The class given is functional, organism-based.
Experiment [8] has as its system Aspergillus niger. The experiment in a line: Antifungal activity against Aspergillus niger NCIM 590 at 64 ug/mL by serial dilution method. The class given is functional, organism-based.
In experiment [9] the test system is Candida albicans. Put plainly: Antifungal activity against Candida albicans NCIM C27 at 64 ug/mL by serial dilution method. The class given is functional, organism-based.
For experiment [10], the system named is Klebsiella pneumoniae. Put plainly: Antibacterial activity against Klebsiella pneumoniae ATCC 13883 at 64 ug/mL by serial dilution method. The class given is functional, organism-based.
Experiment [11] concerns Escherichia coli. Put plainly: Antibacterial activity against Escherichia coli ATCC 25922 at 64 ug/mL by serial dilution method. The class given is functional, organism-based.
For experiment [12], the system named is Bacillus subtilis. The experiment in a line: Antibacterial activity against Bacillus subtilis ATCC 6033 at 64 ug/mL by serial dilution method. It is filed as functional, organism-based.

Converted amounts (≈) assume the structure as drawn. The source made the active and inactive calls. The calls are words filed in the database; no cut-off is given here.

As to `CCn1cc(C(=O)O)c(=O)c2cc(F)c(N3CCNCC3)cc21` [NORFLOXACIN], the MIC (commonly the least concentration at which growth counts as inhibited) with Escherichia coli [1] is 16 µg/mL (≈ 50.1 µM); against Pseudomonas aeruginosa, 8 µg/mL (≈ 25.1 µM); in the experiment with Bacillus subtilis [2] it was 32 µg/mL (≈ 100 µM); against Staphylococcus aureus, 8 µg/mL (≈ 25.1 µM); in the experiment with Enterococcus faecalis, 8 µg/mL (≈ 25.1 µM); in the experiment on Klebsiella pneumoniae [3], 16 µg/mL (≈ 50.1 µM).
On to `COc1cc(S(=O)(=O)N2CCCCC2)ccc1-n1cnc2c(=O)[nH]c(N)nc21`, for which the MIC against Escherichia coli [1] came out at 32 µg/mL (≈ 79.1 µM); with Pseudomonas aeruginosa, 64 µg/mL (≈ 158 µM); with Bacillus subtilis [2], 16 µg/mL (≈ 39.6 µM); in the experiment with Staphylococcus aureus, 64 µg/mL (≈ 158 µM); with Enterococcus faecalis, 64 µg/mL (≈ 158 µM); with Aspergillus flavus [4], 16 µg/mL (≈ 39.6 µM). Moreover, the MIC with Aspergillus niger [5] turned out to be 16 µg/mL (≈ 39.6 µM); against Candida albicans [6], 32 µg/mL (≈ 79.1 µM); in the experiment with Klebsiella pneumoniae [3], 32 µg/mL (≈ 79.1 µM).
Regarding `Nc1nc2c(ncn2-c2ccc(S(=O)(=O)N3CCCCC3)cc2F)c(=O)[nH]1`, the MIC with Escherichia coli [1] came out at 64 µg/mL (≈ 163 µM); against Pseudomonas aeruginosa it was 64 µg/mL (≈ 163 µM); in the experiment on Bacillus subtilis [2], 32 µg/mL (≈ 81.5 µM); in the experiment with Staphylococcus aureus it was 32 µg/mL (≈ 81.5 µM); against Enterococcus faecalis, 16 µg/mL (≈ 40.8 µM); with Klebsiella pneumoniae [3], 32 µg/mL (≈ 81.5 µM). The result in the experiment with Aspergillus flavus [7], in the experiment with Aspergillus niger [8] and with Candida albicans [9] was inactive.
On to `Nc1nc2c(ncn2-c2ccc(S(=O)(=O)N3CCCCC3)cc2)c(=O)[nH]1`, for which the MIC against Pseudomonas aeruginosa, in the experiment with Staphylococcus aureus and against Enterococcus faecalis was 64 µg/mL (≈ 171 µM) each time. Besides, the result in the experiment on Klebsiella pneumoniae [10], with Escherichia coli [11], in the experiment on Bacillus subtilis [12], in the experiment on Aspergillus flavus [7], in the experiment on Aspergillus niger [8] and in the experiment on Candida albicans [9] was inactive.
On to `Nc1nc2c(ncn2-c2ccc(S(=O)(=O)N3CCCCC3)cc2Cl)c(=O)[nH]1`, for which the MIC in the experiment with Escherichia coli [1] was determined as 16 µg/mL (≈ 39.1 µM); in the experiment with Pseudomonas aeruginosa, 8 µg/mL (≈ 19.6 µM); against Bacillus subtilis [2], 32 µg/mL (≈ 78.3 µM); against Staphylococcus aureus, 4 µg/mL (≈ 9.78 µM); against Enterococcus faecalis, 4 µg/mL (≈ 9.78 µM); in the experiment on Aspergillus flavus [4], 64 µg/mL (≈ 157 µM). The MIC amounted to 64 µg/mL (≈ 157 µM) in the experiment with Aspergillus niger [5], 64 µg/mL (≈ 157 µM) in the experiment with Candida albicans [6] and 16 µg/mL (≈ 39.1 µM) against Klebsiella pneumoniae [3].
On to `CC1CCN(S(=O)(=O)c2ccc(-n3cnc4c(=O)[nH]c(N)nc43)cc2)CC1`, for which the minimal inhibitory concentration (MIC) against Pseudomonas aeruginosa, with Bacillus subtilis [2], in the experiment on Staphylococcus aureus and against Enterococcus faecalis was 64 µg/mL (≈ 165 µM) throughout. The result in the experiment on Klebsiella pneumoniae [10], in the experiment with Escherichia coli [11], in the experiment with Bacillus subtilis [12], with Aspergillus flavus [7], in the experiment with Aspergillus niger [8] and in the experiment on Candida albicans [9] was inactive.
As to `CC1CCN(S(=O)(=O)c2ccc(-n3cnc4c(=O)[nH]c(N)nc43)c(Cl)c2)CC1`, the MIC in the experiment on Escherichia coli [1] was determined as 16 µg/mL (≈ 37.8 µM); in the experiment on Pseudomonas aeruginosa, 16 µg/mL (≈ 37.8 µM); with Bacillus subtilis [2], 32 µg/mL (≈ 75.7 µM); in the experiment with Staphylococcus aureus, 4 µg/mL (≈ 9.46 µM); with Enterococcus faecalis, 8 µg/mL (≈ 18.9 µM); in the experiment on Aspergillus flavus [4] it was 32 µg/mL (≈ 75.7 µM). Moreover, the figures for the MIC in the experiment with Aspergillus niger [5], against Candida albicans [6] and in the experiment with Klebsiella pneumoniae [3] were 32 µg/mL (≈ 75.7 µM), 64 µg/mL (≈ 151 µM) and 16 µg/mL (≈ 37.8 µM), respectively.
In the case of `CC1CCN(S(=O)(=O)c2ccc(-n3cnc4c(=O)[nH]c(N)nc43)c(F)c2)CC1`, the MIC in the experiment on Escherichia coli [1] was 32 µg/mL (≈ 78.7 µM); against Pseudomonas aeruginosa, 64 µg/mL (≈ 157 µM); in the experiment with Bacillus subtilis [2] it was 64 µg/mL (≈ 157 µM); against Staphylococcus aureus, 32 µg/mL (≈ 78.7 µM); with Enterococcus faecalis, 32 µg/mL (≈ 78.7 µM); with Aspergillus flavus [4], 64 µg/mL (≈ 157 µM). The figures for the MIC against Aspergillus niger [5], with Candida albicans [6] and against Klebsiella pneumoniae [3] were 32 µg/mL (≈ 78.7 µM), 64 µg/mL (≈ 157 µM) and 32 µg/mL (≈ 78.7 µM), respectively.
In the case of `COc1cc(S(=O)(=O)N2CCC(C)CC2)ccc1-n1cnc2c(=O)[nH]c(N)nc21`, the MIC in the experiment on Escherichia coli [1] was 16 µg/mL (≈ 38.2 µM); in the experiment with Pseudomonas aeruginosa, 64 µg/mL (≈ 153 µM); in the experiment with Bacillus subtilis [2] it was 16 µg/mL (≈ 38.2 µM); in the experiment on Staphylococcus aureus, 32 µg/mL (≈ 76.5 µM); against Enterococcus faecalis it was 32 µg/mL (≈ 76.5 µM); in the experiment with Aspergillus flavus [4], 16 µg/mL (≈ 38.2 µM). Besides, the MIC in the experiment on Aspergillus niger [5], with Candida albicans [6] and against Klebsiella pneumoniae [3] was 32 µg/mL (≈ 76.5 µM) each time.

The values are drawn from ChEMBL document CHEMBL1140570, “Synthesis and antimicrobial evaluation of guanylsulfonamides” (2007).
